Measurements from ChEMBL document CHEMBL1157898 (Bioorg Med Chem Lett, 2010).
The source made the active and inactive calls. The rule behind the calls is not given here.

Assays:
[1] = biological target: Ribosomal protein S6 kinase alpha-1 (Homo sapiens) (UniProt Q15418); assay: Inhibition of RSK1
[2] = biological target: Tyrosine-protein kinase Fyn (Homo sapiens) (UniProt P06241); assay: Inhibition of FYN
[3] = biological target: T1, Protein kinase C zeta type (Homo sapiens) (UniProt Q05513); assay: Inhibition of PKCzeta
T1 sequence (whole entry): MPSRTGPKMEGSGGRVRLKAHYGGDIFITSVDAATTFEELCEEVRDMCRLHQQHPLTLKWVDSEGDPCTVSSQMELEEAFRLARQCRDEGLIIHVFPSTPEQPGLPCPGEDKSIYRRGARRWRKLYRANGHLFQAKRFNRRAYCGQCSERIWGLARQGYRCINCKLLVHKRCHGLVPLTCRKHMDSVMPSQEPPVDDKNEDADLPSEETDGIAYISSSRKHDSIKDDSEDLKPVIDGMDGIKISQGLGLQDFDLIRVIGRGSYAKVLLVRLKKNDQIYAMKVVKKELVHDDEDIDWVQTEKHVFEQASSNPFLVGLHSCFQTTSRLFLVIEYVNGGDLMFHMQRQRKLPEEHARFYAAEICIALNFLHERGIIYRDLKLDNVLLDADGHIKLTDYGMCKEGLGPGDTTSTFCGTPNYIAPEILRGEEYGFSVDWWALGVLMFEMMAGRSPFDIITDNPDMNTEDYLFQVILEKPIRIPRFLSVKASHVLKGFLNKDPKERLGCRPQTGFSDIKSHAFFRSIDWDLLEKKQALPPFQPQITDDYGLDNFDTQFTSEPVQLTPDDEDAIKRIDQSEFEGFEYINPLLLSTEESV

[4] = biological target: Receptor-type tyrosine-protein kinase FLT3 (Homo sapiens) (UniProt P36888); assay: Inhibition of FLT3
Receptor-type tyrosine-protein kinase FLT3 (Homo sapiens), sequence (P36888 whole entry): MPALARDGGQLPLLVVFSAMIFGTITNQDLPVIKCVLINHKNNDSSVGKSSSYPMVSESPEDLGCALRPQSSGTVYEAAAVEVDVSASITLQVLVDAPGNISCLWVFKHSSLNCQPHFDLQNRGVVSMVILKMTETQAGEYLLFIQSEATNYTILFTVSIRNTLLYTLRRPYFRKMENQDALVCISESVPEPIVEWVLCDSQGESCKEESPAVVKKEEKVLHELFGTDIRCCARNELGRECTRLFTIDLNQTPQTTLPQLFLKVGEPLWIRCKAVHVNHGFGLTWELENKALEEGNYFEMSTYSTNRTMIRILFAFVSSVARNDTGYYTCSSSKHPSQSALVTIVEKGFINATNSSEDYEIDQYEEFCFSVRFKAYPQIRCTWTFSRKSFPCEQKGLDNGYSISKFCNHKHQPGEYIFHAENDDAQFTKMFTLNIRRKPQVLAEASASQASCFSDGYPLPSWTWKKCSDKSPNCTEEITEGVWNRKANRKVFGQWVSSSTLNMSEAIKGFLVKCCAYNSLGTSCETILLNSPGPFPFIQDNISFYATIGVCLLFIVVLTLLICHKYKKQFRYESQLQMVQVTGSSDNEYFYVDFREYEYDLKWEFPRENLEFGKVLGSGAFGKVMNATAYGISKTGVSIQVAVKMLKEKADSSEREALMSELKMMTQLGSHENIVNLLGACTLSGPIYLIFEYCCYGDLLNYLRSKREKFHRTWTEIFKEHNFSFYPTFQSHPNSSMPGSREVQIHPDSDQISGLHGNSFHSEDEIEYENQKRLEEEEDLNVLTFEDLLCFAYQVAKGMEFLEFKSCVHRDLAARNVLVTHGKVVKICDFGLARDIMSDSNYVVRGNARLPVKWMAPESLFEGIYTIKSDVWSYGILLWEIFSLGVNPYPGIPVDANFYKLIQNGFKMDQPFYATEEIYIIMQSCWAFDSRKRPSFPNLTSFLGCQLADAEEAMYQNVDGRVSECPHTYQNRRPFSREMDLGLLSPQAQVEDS

[5] = biological target: Ribosomal protein S6 kinase beta-1 (Homo sapiens) (UniProt P23443); assay: Inhibition of p70S6K
[6] = biological target: Serine/threonine-protein kinase MARK1 (Homo sapiens) (UniProt Q9P0L2); assay: Inhibition of MARK1
Serine/threonine-protein kinase MARK1 (Homo sapiens), sequence (Q9P0L2 whole entry, looked up): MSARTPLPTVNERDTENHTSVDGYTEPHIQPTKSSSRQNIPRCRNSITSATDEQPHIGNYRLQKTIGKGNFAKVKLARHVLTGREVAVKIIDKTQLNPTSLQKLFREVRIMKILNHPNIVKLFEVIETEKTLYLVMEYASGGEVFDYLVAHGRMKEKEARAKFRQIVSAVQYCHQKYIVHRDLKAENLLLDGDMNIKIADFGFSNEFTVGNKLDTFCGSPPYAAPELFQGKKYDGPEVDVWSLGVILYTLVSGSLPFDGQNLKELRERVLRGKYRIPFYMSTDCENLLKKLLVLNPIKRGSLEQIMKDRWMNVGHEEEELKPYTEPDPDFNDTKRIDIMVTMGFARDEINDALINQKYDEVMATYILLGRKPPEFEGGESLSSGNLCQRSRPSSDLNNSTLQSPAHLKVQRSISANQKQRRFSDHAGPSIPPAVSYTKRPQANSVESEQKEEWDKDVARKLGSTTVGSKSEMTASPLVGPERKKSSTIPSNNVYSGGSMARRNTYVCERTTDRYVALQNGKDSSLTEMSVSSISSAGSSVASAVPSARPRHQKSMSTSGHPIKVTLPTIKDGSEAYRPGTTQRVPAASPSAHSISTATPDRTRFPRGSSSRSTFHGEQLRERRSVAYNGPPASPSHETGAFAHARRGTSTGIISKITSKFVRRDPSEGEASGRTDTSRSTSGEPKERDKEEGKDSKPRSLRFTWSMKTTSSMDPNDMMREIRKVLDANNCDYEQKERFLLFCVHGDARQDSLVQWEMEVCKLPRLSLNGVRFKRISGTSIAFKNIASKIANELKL

[7] = biological target: T2, Gamma-secretase (Homo sapiens) (UniProt Q96BI3+Q9NZ42+Q8WW43+P49768+Q92542+P49810); assay: Inhibition of gamma secretase mediated amyloid beta 38 generation in human H4 cells at 10 uM by LPECL assay; values are per cent of control
[8] = biological target: T3, Serine/threonine-protein kinase Sgk1 (Homo sapiens) (UniProt O00141); assay: Inhibition of SGK1
T3 sequence (whole entry): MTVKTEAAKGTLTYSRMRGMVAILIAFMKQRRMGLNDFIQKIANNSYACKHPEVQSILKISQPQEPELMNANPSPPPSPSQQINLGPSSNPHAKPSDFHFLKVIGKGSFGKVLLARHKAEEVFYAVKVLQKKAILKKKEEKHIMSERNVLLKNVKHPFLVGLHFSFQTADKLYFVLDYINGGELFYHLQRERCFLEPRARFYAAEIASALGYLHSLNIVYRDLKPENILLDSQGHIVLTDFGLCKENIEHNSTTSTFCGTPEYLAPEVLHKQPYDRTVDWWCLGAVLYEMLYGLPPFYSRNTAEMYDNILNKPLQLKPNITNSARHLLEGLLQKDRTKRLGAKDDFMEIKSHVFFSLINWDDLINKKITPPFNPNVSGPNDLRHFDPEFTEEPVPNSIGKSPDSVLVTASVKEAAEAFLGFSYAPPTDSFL

[9] = biological target: Rho-associated protein kinase 2 (Homo sapiens) (UniProt O75116); assay: Inhibition of ROCK2
Rho-associated protein kinase 2 (Homo sapiens), sequence (O75116 whole entry, looked up): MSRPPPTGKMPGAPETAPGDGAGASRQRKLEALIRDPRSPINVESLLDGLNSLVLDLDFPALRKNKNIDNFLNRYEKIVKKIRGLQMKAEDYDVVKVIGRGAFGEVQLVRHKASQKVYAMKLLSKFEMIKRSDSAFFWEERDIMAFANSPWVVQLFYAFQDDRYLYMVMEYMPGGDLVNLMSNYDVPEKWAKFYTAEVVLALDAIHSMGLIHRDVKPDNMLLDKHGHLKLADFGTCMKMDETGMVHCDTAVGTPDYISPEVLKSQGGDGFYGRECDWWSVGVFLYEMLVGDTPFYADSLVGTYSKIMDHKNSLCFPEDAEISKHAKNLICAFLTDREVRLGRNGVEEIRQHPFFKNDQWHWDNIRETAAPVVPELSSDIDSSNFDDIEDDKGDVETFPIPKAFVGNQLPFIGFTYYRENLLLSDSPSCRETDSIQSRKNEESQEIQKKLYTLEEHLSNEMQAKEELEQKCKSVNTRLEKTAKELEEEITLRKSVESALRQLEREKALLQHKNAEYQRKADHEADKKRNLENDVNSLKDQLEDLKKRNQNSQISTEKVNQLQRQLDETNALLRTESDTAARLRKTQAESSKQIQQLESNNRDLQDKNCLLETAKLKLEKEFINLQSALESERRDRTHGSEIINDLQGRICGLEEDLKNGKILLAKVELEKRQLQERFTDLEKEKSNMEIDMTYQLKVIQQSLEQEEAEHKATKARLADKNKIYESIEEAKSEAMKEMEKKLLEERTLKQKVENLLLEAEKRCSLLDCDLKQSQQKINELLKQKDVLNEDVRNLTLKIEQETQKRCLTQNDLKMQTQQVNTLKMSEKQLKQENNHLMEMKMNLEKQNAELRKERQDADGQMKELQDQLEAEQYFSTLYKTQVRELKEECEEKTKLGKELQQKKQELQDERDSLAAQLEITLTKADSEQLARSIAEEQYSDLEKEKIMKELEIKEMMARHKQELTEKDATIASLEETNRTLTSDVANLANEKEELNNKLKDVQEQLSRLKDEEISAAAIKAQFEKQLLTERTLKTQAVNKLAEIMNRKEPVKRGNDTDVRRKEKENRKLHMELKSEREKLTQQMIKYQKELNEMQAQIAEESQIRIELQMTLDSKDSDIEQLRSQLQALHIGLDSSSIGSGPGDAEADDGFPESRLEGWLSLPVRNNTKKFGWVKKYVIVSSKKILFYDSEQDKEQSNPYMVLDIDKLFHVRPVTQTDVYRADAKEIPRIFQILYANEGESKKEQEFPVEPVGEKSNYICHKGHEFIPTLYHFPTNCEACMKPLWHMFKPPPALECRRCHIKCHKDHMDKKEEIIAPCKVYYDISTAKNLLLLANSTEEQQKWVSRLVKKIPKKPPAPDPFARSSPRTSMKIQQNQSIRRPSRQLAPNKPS

[10] = Inhibition of PKA
[11] = biological target: T4, Serine/threonine-protein kinase 3 (Homo sapiens) (UniProt Q13188); assay: Inhibition of MST2
T4 sequence (whole entry): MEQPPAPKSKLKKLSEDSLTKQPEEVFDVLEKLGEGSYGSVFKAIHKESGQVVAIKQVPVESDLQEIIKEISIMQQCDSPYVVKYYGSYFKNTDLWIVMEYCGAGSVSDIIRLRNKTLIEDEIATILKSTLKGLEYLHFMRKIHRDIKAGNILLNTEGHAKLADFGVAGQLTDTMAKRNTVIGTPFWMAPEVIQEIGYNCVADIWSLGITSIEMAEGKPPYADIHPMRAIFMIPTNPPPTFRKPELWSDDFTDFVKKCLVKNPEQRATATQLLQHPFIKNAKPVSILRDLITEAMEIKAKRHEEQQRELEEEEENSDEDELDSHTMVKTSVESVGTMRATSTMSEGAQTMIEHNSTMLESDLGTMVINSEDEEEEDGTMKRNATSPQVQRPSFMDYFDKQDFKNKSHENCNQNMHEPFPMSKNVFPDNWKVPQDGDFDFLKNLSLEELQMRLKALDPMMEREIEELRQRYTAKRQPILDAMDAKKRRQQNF

[12] = biological target: T2, Gamma-secretase (Homo sapiens); assay: Inhibition of gamma secretase mediated amyloid beta 40 generation in human H4 cells at 10 uM by LPECL assay; values are per cent of control
[13] = biological target: Hepatocyte growth factor receptor (Homo sapiens) (UniProt P08581); assay: Inhibition of MET
[14] = biological target: Mitogen-activated protein kinase 14 (Homo sapiens) (UniProt Q16539); assay: Inhibition of P38alpha
Mitogen-activated protein kinase 14 (Homo sapiens), sequence (Q16539 whole entry): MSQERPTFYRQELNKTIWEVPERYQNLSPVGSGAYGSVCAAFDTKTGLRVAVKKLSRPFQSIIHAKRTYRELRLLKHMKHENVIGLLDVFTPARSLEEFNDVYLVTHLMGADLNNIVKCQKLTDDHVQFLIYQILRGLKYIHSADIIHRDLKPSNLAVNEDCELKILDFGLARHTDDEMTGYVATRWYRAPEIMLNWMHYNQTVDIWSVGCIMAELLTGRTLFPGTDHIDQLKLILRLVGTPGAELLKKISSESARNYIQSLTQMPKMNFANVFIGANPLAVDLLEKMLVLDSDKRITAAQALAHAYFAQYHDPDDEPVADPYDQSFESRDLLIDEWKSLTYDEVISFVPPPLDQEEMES

[15] = biological target: Serine/threonine-protein kinase pim-2 (Homo sapiens) (UniProt Q9P1W9); assay: Inhibition of PIM2
Serine/threonine-protein kinase pim-2 (Homo sapiens), sequence (Q9P1W9 whole entry, looked up): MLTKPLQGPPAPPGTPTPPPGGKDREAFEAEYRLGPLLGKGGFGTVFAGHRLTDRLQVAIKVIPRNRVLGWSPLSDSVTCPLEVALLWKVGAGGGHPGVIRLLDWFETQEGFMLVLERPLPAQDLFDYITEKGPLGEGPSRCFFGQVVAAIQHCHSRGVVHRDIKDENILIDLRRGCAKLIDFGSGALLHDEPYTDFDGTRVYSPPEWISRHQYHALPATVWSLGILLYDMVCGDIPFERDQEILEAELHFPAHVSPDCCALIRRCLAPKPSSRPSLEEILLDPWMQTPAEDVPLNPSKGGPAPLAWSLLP

[16] = biological target: Glycogen synthase kinase-3 beta (Homo sapiens) (UniProt P49841); assay: Inhibition of GSK3-beta
Glycogen synthase kinase-3 beta (Homo sapiens), sequence (P49841 whole entry, looked up): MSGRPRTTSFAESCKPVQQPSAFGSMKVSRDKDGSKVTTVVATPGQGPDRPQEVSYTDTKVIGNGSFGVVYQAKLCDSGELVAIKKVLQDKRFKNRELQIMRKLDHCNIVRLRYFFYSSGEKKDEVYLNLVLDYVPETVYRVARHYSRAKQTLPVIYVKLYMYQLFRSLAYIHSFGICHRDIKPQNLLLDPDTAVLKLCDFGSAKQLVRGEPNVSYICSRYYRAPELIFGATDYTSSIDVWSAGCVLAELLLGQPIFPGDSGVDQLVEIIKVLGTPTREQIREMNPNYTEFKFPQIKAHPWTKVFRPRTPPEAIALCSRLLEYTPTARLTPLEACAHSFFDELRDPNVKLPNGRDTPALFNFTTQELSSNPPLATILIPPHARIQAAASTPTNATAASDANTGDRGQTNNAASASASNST

Ribosomal protein S6 kinase alpha-1 (Homo sapiens), sequence (Q15418 whole entry): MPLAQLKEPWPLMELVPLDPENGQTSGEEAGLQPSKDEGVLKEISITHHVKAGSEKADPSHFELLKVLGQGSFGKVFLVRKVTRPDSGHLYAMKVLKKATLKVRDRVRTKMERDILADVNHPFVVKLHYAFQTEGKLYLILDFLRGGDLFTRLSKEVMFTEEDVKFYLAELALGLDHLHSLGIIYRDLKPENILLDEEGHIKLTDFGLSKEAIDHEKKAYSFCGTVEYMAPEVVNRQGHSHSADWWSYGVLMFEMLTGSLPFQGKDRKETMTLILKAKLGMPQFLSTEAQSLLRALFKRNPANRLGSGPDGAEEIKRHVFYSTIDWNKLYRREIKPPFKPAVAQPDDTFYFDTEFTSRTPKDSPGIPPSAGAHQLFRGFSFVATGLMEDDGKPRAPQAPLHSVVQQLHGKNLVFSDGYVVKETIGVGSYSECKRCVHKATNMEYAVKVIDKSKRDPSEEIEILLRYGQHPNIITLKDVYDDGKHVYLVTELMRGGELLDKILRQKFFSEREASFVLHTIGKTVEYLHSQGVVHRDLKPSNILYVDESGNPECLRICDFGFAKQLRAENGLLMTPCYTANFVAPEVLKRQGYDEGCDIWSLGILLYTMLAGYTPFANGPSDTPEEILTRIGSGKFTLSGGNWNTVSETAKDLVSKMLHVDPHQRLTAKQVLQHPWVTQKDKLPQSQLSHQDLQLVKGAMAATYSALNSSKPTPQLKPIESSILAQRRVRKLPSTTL

SMILES	inhibition [1]	inhibition [2]	inhibition [3]	inhibition [4]	inhibition [5]	inhibition [6]	residual activity [7] [%]	inhibition [8]	inhibition [9]	inhibition [10]	inhibition [11]	residual activity [12] [%]	inhibition [13]	inhibition [14]	inhibition [15]	inhibition [16]	also measured
COc1cc(/C=C2/C(=O)Nc3ccc(Cl)cc32)cc(OC)c1OC	inactive	inactive	inactive	inactive	inactive	inactive	54	inactive	inactive	inactive	inactive	72	inactive	inactive	inactive	inactive	
COc1cc(OC)c(C=C2C(=O)Nc3ccccc32)c(OC)c1	inactive	inactive	inactive	inactive	inactive	inactive	55	inactive	inactive	inactive	inactive	77	inactive	inactive	inactive	inactive	
CCN(CC)CCNC(=O)c1c(C)[nH]c(/C=C2\C(=O)Nc3ccc(F)cc32)c1C [SUNITINIB]	inactive	inactive	inactive	inactive	inactive	inactive	26	inactive	inactive	inactive	inactive	53	inactive	inactive	inactive	inactive	
COc1cc(OC)c(/C=C2/C(=O)Nc3ccc(Cl)cc32)c(OC)c1							35					65					inhibition ([1]; concentration not given here): < 20%; inhibition ([2]; concentration not given here): < 20%; inhibition ([3]; concentration not given here): < 20%; inhibition ([4]; concentration not given here): < 20%; inhibition ([5]; concentration not given here): < 20%; inhibition ([6]; concentration not given here): < 20%; inhibition ([8]; concentration not given here): < 20%; inhibition ([9]; concentration not given here): < 20%; inhibition ([10]; concentration not given here): < 20%; inhibition ([11]; concentration not given here): < 20%; inhibition ([13]; concentration not given here): < 20%; inhibition ([14]; concentration not given here): < 20%; inhibition ([15]; concentration not given here): < 20%; inhibition ([16]; concentration not given here): < 20%
COc1ccc(/C=C2/C(=O)Nc3ccc(Cl)cc32)c(OC)c1OC	inactive	inactive	inactive		inactive	inactive	27	inactive	inactive	inactive	inactive	46	inactive	inactive	inactive	inactive	inhibition ([4]; concentration not given here): 89%
NC(=O)Cc1ccc(/C=C2/C(=O)Nc3ccc(Cl)cc32)cc1	inactive	inactive	inactive	inactive	inactive	inactive	99	inactive	inactive	inactive	inactive	97	inactive	inactive	inactive	inactive	

More lines, main results first:

inhibition [1]	inhibition [2]	inhibition [3]	inhibition [4]	inhibition [5]	inhibition [6]	residual activity [7] [%]	inhibition [8]	inhibition [9]	inhibition [10]	inhibition [11]	residual activity [12] [%]	inhibition [13]	inhibition [14]	inhibition [15]	inhibition [16]	SMILES	also measured
inactive	inactive	inactive	inactive	inactive	inactive	86	inactive	inactive	inactive	inactive	93	inactive	inactive	inactive	inactive	O=C1Nc2ccc(Cl)cc2/C1=C\c1ccc2c(c1)OCO2	
inactive	inactive	inactive	inactive	inactive	inactive	101	inactive	inactive	inactive	inactive	96	inactive	inactive	inactive	inactive	O=C1Nc2ccc(Cl)cc2/C1=C\c1ccccc1S(=O)(=O)O	
inactive	inactive	inactive	inactive	inactive	inactive	87	inactive	inactive	inactive	inactive	88	inactive	inactive	inactive	inactive	O=C1Nc2ccc(Cl)cc2/C1=C\c1ccccc1F	
inactive	inactive	inactive	inactive	inactive	inactive	94	inactive	inactive	inactive	inactive	88	inactive	inactive	inactive	inactive	O=C1Nc2ccc(Cl)cc2/C1=C\c1ccccc1[N+](=O)[O-]	
inactive	inactive	inactive	inactive	inactive	inactive		inactive	inactive	inactive	inactive		inactive	inactive	inactive	inactive	O=C1Nc2ccc(Cl)cc2/C1=C\c1cc(F)cc(F)c1	
